Reference: patent publication US7182954B1, “Prebiotic oligosaccharides via alternansucrase acceptor reactions” (priority 2003, dated 2007)

System: alternansucrase
Test: Comparison of acceptor strengths with alternansucrase, relative amount of alternan formed
Details: for Alternan (Rel. %): 45 μL 10% (w/v) sucrose, 45 μL 10% (w/v) acceptor, 10 μL alternansucrase, pH 5.4, room temperature, less alternan = stronger acceptor; for acceptor strength for alternansucrase, in words: text summary of Table I

| SMILES | Alternan (Rel. %) | acceptor strength for alternansucrase, in words | reduction in the amount of alternan formed (acceptor added at the same initial level as other disaccharides) [%] |
| --- | --- | --- | --- |
| OC[C@H]1O[C@@H](O[C@@H]2[C@@H](CO)OC(O)(CO)[C@H]2O)[C@H](O)[C@@H](O)[C@H]1O (mixture of isomers) [lactulose] | 91 |  |  |
| OC[C@H]1O[C@H](OC[C@H]2O[C@H](O[C@H]3O[C@H](CO[C@H]4O[C@H](CO)[C@@H](O)[C@H](O)[C@H]4O)[C@@H](O)[C@H](O)[C@H]3O)[C@H](O)[C@@H](O)[C@@H]2O)[C@H](O)[C@@H](O)[C@@H]1O [6,6′-di-O-α-D-Glc-trehalose, 6,6′-di-O-α-D-glucopyranosyl-α,α-trehalose] | 54 | relatively good acceptors |  |
| OC[C@H]1O[C@H](OC[C@H]2O[C@H](O[C@H]3O[C@H](CO)[C@@H](O)[C@H](O)[C@H]3O)[C@H](O)[C@@H](O)[C@@H]2O)[C@H](O)[C@@H](O)[C@@H]1O [6-O-α-D-Glc-trehalose, 6-O-α-D-glucopyranosyl-α,α-trehalose] | 56 | relatively good acceptors |  |
| OC[C@H]1O[C@H](OC[C@H]2O[C@H](OC[C@H]3O[C@H](O[C@H]4[C@H](O)[C@@H](O)C(O)O[C@@H]4CO)[C@H](O)[C@@H](O)[C@@H]3O)[C@H](O)[C@@H](O)[C@@H]2O)[C@H](O)[C@@H](O)[C@@H]1O (stereo partly drawn) [6″-O-α-D-Glc panose] | 36 |  |  |
| O=C(CO)[C@@H](O)[C@H](O)[C@H](O)CO [D-fructose] | 78 |  |  |
| O=C(CO)[C@H](O)[C@H](O)[C@H](O)CO [D-psicose] | 85 |  |  |
| O=C(CO)[C@H](O)[C@@H](O)[C@H](O)CO [D-sorbose] | 97 |  |  |
| O=C(CO)[C@@H](O)[C@@H](O)[C@H](O)CO [D-tagatose] | 65 |  |  |
| O=C(CO)[C@@H](O)[C@H](O)[C@@H](O)CO [L-sorbose] | 88 |  |  |
| OC[C@H]1O[C@@H]2OC[C@H]3O[C@H](O[C@@H]4[C@@H](O)[C@@H](OC[C@H]5O[C@H](O[C@H]([C@H]2O)[C@@H]1O)[C@H](O)[C@@H](O)[C@@H]5O)O[C@H](CO)[C@H]4O)[C@H](O)[C@@H](O)[C@@H]3O [cycloGlc4 (cyclo-alternan), cycloalternan] | 90 |  |  |
| OC[C@H]1O[C@@](CO)(O[C@H]2O[C@H](CO[C@@H]3O[C@H](CO)[C@@H](O)[C@H](O)[C@H]3O)[C@@H](O)[C@H](O)[C@H]2O)[C@@H](O)[C@@H]1O [gentianose] | 66 |  |  |
| OC[C@H]1O[C@H](OC[C@H]2OC(O)[C@H](O)[C@@H](O)[C@@H]2O)[C@H](O)[C@@H](O)[C@@H]1O (stereo partly shown) [isomaltose] | 44 |  |  |
| OC[C@H]1O[C@H](OC[C@H]2O[C@H](OC[C@H]3OC(O)[C@H](O)[C@@H](O)[C@@H]3O)[C@H](O)[C@@H](O)[C@@H]2O)[C@H](O)[C@@H](O)[C@@H]1O (stereo partly shown) [isomaltotriose] | 50 |  |  |
| OC[C@H]1O[C@H](O[C@H]2C(O)O[C@H](CO)[C@@H](O)[C@@H]2O)[C@H](O)[C@@H](O)[C@@H]1O (stereo partly shown) [kojibiose] | 27 |  |  |
| OC[C@H]1O[C@H](O[C@H]2[C@@H](O[C@H]3C(O)O[C@H](CO)[C@@H](O)[C@@H]3O)O[C@H](CO)[C@@H](O)[C@@H]2O)[C@H](O)[C@@H](O)[C@@H]1O (stereo partly shown) [kojitriose] | 86 |  |  |
| OC[C@H]1O[C@@H](O[C@H]2[C@H](O)[C@@H](O)C(O)O[C@@H]2CO)[C@H](O)[C@@H](O)[C@H]1O (stereo partly shown) [lactose] | 79 |  |  |
| OC[C@H]1O[C@@H](O[C@H]2[C@H](O)[C@@H](CO)OC(O)[C@@H]2O)[C@H](O)[C@@H](O)[C@@H]1O (stereo partly shown) [laminaribiose] | 58 |  |  |
| OC[C@H]1O[C@H](O[C@@H]2COC(O)(CO)[C@@H](O)[C@@H]2O)[C@H](O)[C@@H](O)[C@@H]1O (stereo partly shown) [leucrose] | 81 |  | 19 |
| OC[C@H]1O[C@H](O[C@H]2[C@H](O)[C@@H](O)[C@H](O)O[C@@H]2CO)[C@H](O)[C@@H](O)[C@@H]1O [maltose] | 11 | excellent acceptor |  |
| OC[C@H]1O[C@@](CO)(O[C@H]2O[C@H](CO)[C@@H](O)[C@H](O)[C@H]2O)[C@@H](O[C@H]2O[C@H](CO)[C@@H](O)[C@H](O)[C@H]2O)[C@@H]1O [melezitose] | 90 |  |  |
| OC[C@H]1O[C@H](OCC2O[C@@H](O)[C@H](O)[C@@H](O)[C@@H]2O)[C@H](O)[C@@H](O)[C@H]1O (stereo partly shown) [melibiose] | 45 | relatively good acceptors |  |
| OC[C@H]1O[C@H](O[C@H]2[C@H](O)[C@@H](CO)OC(O)[C@@H]2O)[C@H](O)[C@@H](O)[C@@H]1O (stereo partly shown) [nigerose] | 23 |  |  |
| OC[C@H]1O[C@H](OC[C@H]2OC(O)(CO)[C@@H](O)[C@@H]2O)[C@H](O)[C@@H](O)[C@@H]1O (stereo partly shown) [palatinose] | 69 |  |  |
| OC[C@H]1O[C@H](OC[C@H]2O[C@H](O[C@H]3[C@H](O)[C@@H](O)C(O)O[C@@H]3CO)[C@H](O)[C@@H](O)[C@@H]2O)[C@H](O)[C@@H](O)[C@@H]1O (stereo partly shown) [panose] | 25 |  |  |
| OC[C@H]1O[C@H](OC[C@H]2O[C@@](CO)(O[C@H]3O[C@H](CO)[C@@H](O)[C@H](O)[C@H]3O)[C@@H](O)[C@@H]2O)[C@H](O)[C@@H](O)[C@H]1O [planteose] | 76 |  |  |
| OC[C@H]1O[C@H](OC[C@H]2O[C@H](O[C@]3(CO)O[C@H](CO)[C@@H](O)[C@@H]3O)[C@H](O)[C@@H](O)[C@@H]2O)[C@H](O)[C@@H](O)[C@H]1O [raffinose] | 67 | relatively good acceptors |  |
| OC[C@H]1O[C@@H](O[C@H]2C(O)O[C@H](CO)[C@@H](O)[C@@H]2O)[C@H](O)[C@@H](O)[C@@H]1O (stereo partly shown) [sophorose] | 80 |  |  |
| OC[C@H]1O[C@H](OC[C@H]2O[C@H](OC[C@H]3O[C@H](O[C@]4(CO)O[C@H](CO)[C@@H](O)[C@@H]4O)[C@H](O)[C@@H](O)[C@@H]3O)[C@H](O)[C@@H](O)[C@H]2O)[C@H](O)[C@@H](O)[C@H]1O [stachyose] | 89 |  |  |

Next, values leading:

| Alternan (Rel. %) | acceptor strength for alternansucrase, in words | reduction in the amount of alternan formed (acceptor added at the same initial level as other disaccharides) [%] | SMILES |
| --- | --- | --- | --- |
| 89 |  |  | O=CC[C@@H](O)[C@@H](O)[C@H](O)CO [2-deoxy-D-galactose] |
| 59 |  |  | O=CC[C@@H](O)[C@H](O)[C@H](O)CO [2-deoxy-D-glucose] |
| 81 |  |  | O=CC[C@H](O)[C@H](O)CO [2-deoxy-D-ribose] |
| 31 |  |  | O=C[C@H](O)[C@@H](O[C@H]1O[C@H](CO)[C@@H](O)[C@H](O)[C@H]1O)[C@H](O)[C@H](O)CO[C@H]1O[C@H](CO)[C@@H](O)[C@H](O)[C@H]1O [3′-O-α-D-Glc isomaltose, 3-O-α-D-glucopyranosyl-6-O-α-D-glucopyranosyl-D-glucose] |
| 75 |  |  | O=C[C@H](O)[C@H](O)[C@H](O)[C@H](O)CO [D-allose] |
| 92 |  |  | O=C[C@@H](O)[C@H](O)[C@H](O)[C@H](O)CO [D-altrose] |
| 99 |  |  | O=C[C@@H](O)[C@H](O)[C@H](O)CO [D-arabinose] |
| 83 |  |  | O=C[C@H](O)[C@@H](O)[C@@H](O)[C@H](O)CO [D-galactose] |
| 99 |  |  | O=C[C@@H](O)[C@@H](O)[C@H](O)CO [D-lyxose] |
| 90 |  |  | O=C[C@@H](O)[C@@H](O)[C@H](O)[C@H](O)CO [D-mannose] |
| 61 |  |  | C[C@@H](O)[C@@H](O)[C@H](O)[C@@H](O)C=O [D-quinovose] |
| 93 |  |  | O=C[C@H](O)[C@H](O)[C@H](O)CO [D-ribose] |
| 77 |  |  | O=C[C@@H](O)[C@@H](O)[C@@H](O)[C@H](O)CO [D-talose] |
| 86 |  |  | O=C[C@H](O)[C@@H](O)[C@H](O)CO [D-xylose] |
| 75 |  |  | O=C[C@H](O)[C@@H](O)[C@@H](O)CO [L-arabinose] |
| 94 |  |  | C[C@H](O)[C@@H](O)[C@@H](O)[C@H](O)C=O [L-fucose] |
| 63 |  |  | O=C[C@@H](O)[C@H](O)[C@@H](O)[C@@H](O)CO [L-glucose] |
| 92 |  |  | O=C[C@H](O)[C@H](O)[C@@H](O)CO [L-lyxose] |
| 96 |  |  | C[C@H](O)[C@H](O)[C@@H](O)[C@@H](O)C=O [L-rhamnose] |
| 88 |  |  | CC(=O)N[C@H]1C(O)O[C@H](CO)[C@H](O)[C@@H]1O (stereo partly drawn) [N-acetyl-D-galactosamine] |
| 90 |  |  | CC(=O)N[C@H]1C(O)O[C@H](CO)[C@@H](O)[C@@H]1O (stereo partly drawn) [N-acetyl-D-glucosamine] |
| 93 |  |  | CC(=O)N[C@@H]1C(O)O[C@H](CO)[C@@H](O)[C@@H]1O (stereo partly drawn) [N-acetyl-D-mannosamine] |
| 72 |  |  | O=C[C@H](O)[C@@H](O)[C@H](O[C@@H]1O[C@H](CO)[C@@H](O)[C@H](O)[C@H]1O)[C@H](O)CO [cellobiose] |
| 101 |  |  | OC[C@@H](O)[C@H](O)[C@H](O)[C@@H](O)CO [dulcitol] |
| 90 |  |  | O=C[C@@H](O)[C@H](O[C@@H]1O[C@H](CO)[C@H](O)[C@H](O)[C@H]1O)[C@H](O)CO [galactosyl-arabinose, 3-O-β-D-galactopyranosyl-D-arabinose] |
| 18 | excellent acceptor |  | OC[C@@H](O)[C@@H](O[C@H]1O[C@H](CO)[C@@H](O)[C@H](O)[C@H]1O)[C@H](O)[C@@H](O)CO [maltitol] |
| 100 |  |  | OC[C@@H](O)[C@@H](O)[C@H](O)[C@H](O)CO [mannitol] |
| 99 |  |  | O[C@H]1[C@H](O)[C@@H](O)[C@H](O)[C@@H](O)[C@H]1O [myo-inositol] |
| 82 |  |  | OC[C@@H](O)[C@@H](O)[C@H](O)[C@@H](O)CO [sorbitol] |
